Measured values taken from patent US20240390434A1, “PROBIOTIC ENHANCERS AND USES THEREOF” (Blis Technologies Limited, priority 2021, published 2024).

Experiments:
[1] = test system: L. lactis T-21; assay: Dose response deferred antagonism assay, producer M18; type: cell-based
[2] = test system: M. catarrhalis TW2; assay: as above; type: cell-based
[3] = test system: M. catarrhalis TW1; assay: Deferred antagonism assay, producer S. salivarius K12; type: cell-based
Experimental: (§1) 1-2 producer strain colonies were transferred from a stock plate into 900 μL of suspension solution using a fresh cotton swab. Following this, suspensions were vortexed, and a sample was inoculated onto solid culture media using a fresh cotton swab. The inoculation was a streak that runs diametrically across the agar plate in a 1.5 cm wide strip. The plate was then incubated. Following incubation all visible colonies were removed by swabbing them from the agar surface. The plates were then treated with chloroform by dispensing 2 ml of chloroform onto 4 cm×4 cm piece of cloth and sealing the inverted agar plate on top for 30 minutes. The plates were then air dried for 30 minutes following chloroforming. 1-2 indicator strain colonies were then transferred from a stock plate into complementary suspension solution. The suspensions were then vortexed, and a sample was inoculated onto the same agar surface. These samples were streaked in a perpendicular direction to the initial producer streak.
(§2) Each indicator streak was prepared with fresh a suspension containing cells from a corresponding stock plate containing the indicator strain of interest. Indicator strains suspension samples were transferred using a fresh cotton swab. Results were measured by qualitatively reviewing the subsequent (if any) sizes of the zones of inhibition (ZOI) of indicator strain colony growth. A positive result is when there is a distinctive reduction or complete inhibition of indicator colony growth on the culture medium.
(§3) CABCa agar plates containing various concentrations of saccharide were prepared according to the methods described in Method 1. Producer strains were transferred from stock agar plates into 900 μL THB using a fresh cotton swab. A plastic spread plater was cut to approximately 1.2 cm width and then dipped into ethanol and left to air dry to ensure sterility. A 100 μL sample of the producer strain suspension was then dispensed onto the agar surface in a straight line running diametrically across the agar surface in (approximately) 20 μL spots. The spots were spaced approximately 1.5 cm apart from each other. The plastic spreader was then used to evenly distribute the spots across the agar surface in a 1.5 cm wide strip. This step was taken to ensure an even producer streak was inoculated onto the agar surface and provided an approximate measure of the initial inoculum concentration. Separate plastic spreaders were used for samples containing different producer strains. The samples were left to soak into the agar surface until there was no visible liquid remaining on the agar surface (approximately 20 minutes). Following producer streak preparations, the deferred antagonism assay protocol was followed as per Method 2. Results were recorded by measuring the size of the zone of inhibition (ZOI) in mm.
(§4) A dose response assay was carried out according to method 3 above, except a 1.2 cm streak was used. For the individual saccharide testing the pH of the producer streak was adjusted after the growth of producer to change the acidic conditions.

[4] = test system: M. catarrhalis TW1; assay: Deferred antagonism assay, producer S. salivarius M18; type: cell-based
Experimental: as §1, §2, §3, §4

[5] = test system: halitosis-causing gram-negative bacteria F. nucleatum, P. gingivalis and P. intermedia; assay: Deferred antagonism assay (anaerobic), producer K12; type: cell-based; details: 2.5% w/w raffinose; 0.5% w/w galactose; or combination
Experimental: (§5) Method: CABCa agar plates were prepared with or without 2.5% w/w raffinose, 0.5% w/w galactose or a combination of both saccharides by the addition of 0.5% (w/v) calcium carbonate to solid CAB agar in bottles and then melted by autoclaving at 110° C. for 10 mins. Once cooled, filter sterilised solutions of the saccharides or distilled water were added and mixed and then 20 ml pipetted into petri dishes.
A deferred antagonism assay was conducted using K12 or M18 raw ingredient suspended in THB. This was spread as a 1.2 cm streak containing approximately 1-2×10^6 cfu down the middle of a CABCa control or CABCa galactose supplemented test plate. After 18 hrs growth at 37° C., 5% CO2 in air, bacterial growth was removed, and the pH of the agar in the initial streak was measured and adjusted to a pH of 6.5-7.5 using 0.5M sodium carbonate pH11 before sterilizing the agar surface using chloroform vapor. Bacterial test strains were suspended in THB and swabbed across the plates perpendicular to the initial streak and then the plates were incubated at 37° C. in an anaerobic jar containing an anaeroGen sachet for 4 days. Zones of inhibition for each test strain were then measured (mm).

[6] = test system: salQ; assay: qPCR relative gene expression in K12 grown on CABCa agar; type: cell-based, S. salivarius K12
Experimental: as §5, with “prepared either” for “prepared”, “galactose, combined 2.5% w/w raffinose and 0.5% w/w galactose, 0.5% w/w glucose” for “galactose”, “2.5% w/w glucose” for “a combination of both saccharides”
A S. salivarius K12 raw ingredient suspension was prepared in PBS containing approx. 1×10^8cfu/ml. […] of this suspension was spread evenly onto control and test agar plates. Plates were incubated at 37° C. with 5% CO2 for approx, 19 hrs.
Bacterial growth from each plate was collected using a sterile cotton swab and resuspended into 1 ml PBS in a screw capped tube. The bacterial cells were then pelleted by centrifugation at 13,000 rpm for 1 minute at 4° C. The supernatant was removed, and the cell pellet was resuspended in 1 ml of TRIzol reagent. The bacterial cell suspension was transferred into a 2 ml screw-capped tube containing 0.1 mm Zirconia/silicon beads. These tubes were then vortexed for 5 minutes at the highest speed to bead beat the bacterial cells to lyse them. The tubes were placed on ice for 1 minute and then re-bead beated again on the vortex for 5 minutes. The tubes were then frozen at −20° C.
The cDNA samples from K12 raw ingredient grown on the CABCa control plates and CABCa supplemented with the various saccharides were then analysed by qPCR for the levels of gene expression of the following genes: salA, salB, salQ and ureC.
10 μl qPCR reactions were prepared containing 2 μl of cDNA, 5 μl SYBR green master mix, 0.5 μl forward primer, 0.5 μl reverse primer and nuclease free water up to 10 μl. The dilution of cDNA in each qPCR was optimised with each primer set.
qPCR method consisted of the following cycles: Hold Stage: 2 mins at 50° C. followed by 10 mins at 95° C.; PCR Stage: 15 secs at 95° C. followed by 1 min at 60° C.; Melt Curve Stage: 15 secs at 95° C. followed by 1 min at 60° C. followed by 15 secs at 95° C.
To analyse the relative expression levels the 2^−ΔΔCt method was used to determine the relative fold gene expression level comparing the different sugars to a CABCa plate control. The reference gene used for this analysis was gyrA.

Question: How did the “L. lactis zone of inhibition” value ([1]; 1.5% (w/v) galactose, largest) turn out when `O=C[C@H](O)[C@@H](O)[C@@H](O)[C@H](O)CO` [Galactose, D-galactose] was run?
Answer: 9 mm

Question: What about the “increase in zone of inhibition M. catarrhalis TW2” value ([2]; 1.0% (w/v) galactose) of the same compound?
Answer: 13 mm

Question: And the “increase in zone of inhibition M. catarrhalis TW2” value ([2]; 1.5% (w/v) galactose)?
Answer: 23 mm

Question: And the “change in TW1 ZOI size” value ([3]; 1.5% galactose (w/v), peak)?
Answer: 12 mm

Question: What about the “increase in zone of inhibition M. catarrhalis TW1” value ([4]; 1.0% (w/v) galactose) of the same compound?
Answer: 12 mm

Question: And the “increase in zone of inhibition M. catarrhalis TW1” value ([4]; 1.5% (w/v) galactose)?
Answer: 23 mm

Question: And the “antimicrobial activity of K12 against halitosis-causing gram-negative bacteria” value [5]?
Answer: did not induce antimicrobial activity

Question: What about the “salQ upregulated relative to a no sugar control” value ([6]; 0.5% w/w sugar in CABCa agar) of the same compound?
Answer: 205 fold

Question: With `OC[C@H]1O[C@H](OC[C@H]2O[C@H](O[C@]3(CO)O[C@H](CO)[C@@H](O)[C@@H]3O)[C@H](O)[C@@H](O)[C@@H]2O)[C@H](O)[C@@H](O)[C@H]1O` [Raffinose, D-(+) Raffinose pentahydrate] as the compound, how does the “L. lactis ZOI size” value ([1]; 0.1% (w/v) raffinose) read?
Answer: 20 mm

Question: What about the “change in zone of inhibition size M. catarrhalis TW2” value ([2]; 1.5% (w/v) raffinose) of the same compound?
Answer: 31 mm

Question: What about the “change in ZOI size M. catarrhalis TW1” value ([3]; 2.0% (w/v) raffinose, peak) of the same compound?
Answer: 13 mm

Question: And the “Zone of inhibition M. catarrhalis TW1” value ([3]; Raffinose 1.7% wt)?
Answer: 0 mm

Question: And the “Zone of inhibition M. catarrhalis TW1” value ([3]; Raffinose 1.7% wt, pH adjusted)?
Answer: 0 mm

Question: What about the “Zone of inhibition M. catarrhalis TW1” value ([3]; Raffinose 2.5% wt) of the same compound?
Answer: 10 mm

Question: And the “Zone of inhibition M. catarrhalis TW1” value ([3]; Raffinose 2.5% wt, pH adjusted)?
Answer: 0 mm

Question: And the “Zone of inhibition M. catarrhalis TW1” value ([3]; Raffinose 3.3% wt)?
Answer: 0 mm

Question: And the “Zone of inhibition M. catarrhalis TW1” value ([3]; Raffinose 3.3% wt, pH adjusted)?
Answer: 0 mm

Question: And the “Zone of inhibition M. catarrhalis TW1” value ([3]; Raffinose 5% wt)?
Answer: 5 mm

Question: And the “Zone of inhibition M. catarrhalis TW1” value ([3]; Raffinose 5% wt, pH adjusted)?
Answer: 0 mm

Question: What about the “Zone of inhibition M. catarrhalis TW1” value ([3]; Raffinose 10% wt) of the same compound?
Answer: 6 mm

Question: What about the “Zone of inhibition M. catarrhalis TW1” value ([3]; Raffinose 10% wt, pH adjusted) of the same compound?
Answer: 0 mm

Question: What about the “change in zone of inhibition size M. catarrhalis TW1” value ([4]; 1.5% (w/v) raffinose) of the same compound?
Answer: 31 mm

Question: And the “Zone of inhibition M. catarrhalis TW1” value ([4]; Raffinose 1.7% wt)?
Answer: 7 mm

Question: And the “Zone of inhibition M. catarrhalis TW1” value ([4]; Raffinose 1.7% wt, pH adjusted)?
Answer: 0 mm

Question: What about the “Zone of inhibition M. catarrhalis TW1” value ([4]; Raffinose 2.5% wt) of the same compound?
Answer: 17 mm

Question: And the “Zone of inhibition M. catarrhalis TW1” value ([4]; Raffinose 2.5% wt, pH adjusted)?
Answer: 0 mm

Question: What about the “Zone of inhibition M. catarrhalis TW1” value ([4]; Raffinose 3.3% wt) of the same compound?
Answer: 0 mm

Question: What about the “Zone of inhibition M. catarrhalis TW1” value ([4]; Raffinose 3.3% wt, pH adjusted) of the same compound?
Answer: 0 mm

Question: What about the “Zone of inhibition M. catarrhalis TW1” value ([4]; Raffinose 5% wt) of the same compound?
Answer: 15 mm

Question: What about the “Zone of inhibition M. catarrhalis TW1” value ([4]; Raffinose 5% wt, pH adjusted) of the same compound?
Answer: 0 mm

Question: What about the “Zone of inhibition M. catarrhalis TW1” value ([4]; Raffinose 10% wt) of the same compound?
Answer: 0 mm

Question: And the “Zone of inhibition M. catarrhalis TW1” value ([4]; Raffinose 10% wt, pH adjusted)?
Answer: 0 mm

Question: And the “antimicrobial activity of K12 against halitosis-causing gram-negative bacteria” value [5]?
Answer: inhibit a variety of strains

Question: What about the “salQ upregulated relative to a no sugar control” value ([6]; 2.5% w/w sugar in CABCa agar) of the same compound?
Answer: 93 fold
